≈ marks a conversion by molar mass, not a printed value. Where two headings read alike, the source gives them in different places.
Experiments:
B. subtilis 168CA = experiment: ROS scavenger assay (modified MIC assay); format: cell-based, Bacillus subtilis
Protocol: LB media were prepared to contain either 10 mM tiron, 150 mM thiourea, 10 mM tiron and 150 mM thiourea, or no […]. Serial two-fold dilutions of the different antibiotics were prepared in the respective media and transferred to 96-well plates. […] The OD600 was meassured in a BMG Clariostar Plus plate reader.

[1] = system: 36th Passage S.aureus ATCC 29213 in the presence of Pt-1; experiment: microbe, parasite or virus in culture; format: cell-based; details: Staphylococcus aureus, ATCC29213
Protocol: (§1) The MICs of the passaged cultures were determined every 3 days and compared to that of wild type S. aureus ATCC 29213. MIC changes were recorded for 36 passages.

S. aureus ATCC 29213 [2] = experiment: Drug interaction study (chequerboard assay); format: cell-based; details: for MIC: Staphylococcus aureus, ATCC29213; for FIC B: antibiotic in combination with Pt1 / alone; for FIC (FICA+FICB) / Interference: combination with Pt1; for Interference: synergistic ≤0.5, indifferent >0.5 to 4, antagonistic >4
Protocol: All compounds were freshly prepared for the experiment. […] Following incubation, the fractional inhibitory concentration index (FICI) was calculated with the formula FICI = […], whereby FICA = MIC of drug A in combination/MIC of drug A alone and FICB = MIC of drug B in combination/MIC of drug B alone. A drug combination is considered synergistic when ∑FICI is ≤0.5, indifferent when ∑FICI is >0.5 to 4, and antagonistic when ∑FICI is >4.

MSSA ATCC 29213 = experiment: Broth microdilution MIC, MSSA ATCC 29213; format: cell-based, S. aureus; details: Staphylococcus aureus
Protocol: The data is given in supporting information (Table S5). Before starting the experiment, a single colony was picked from MHA plate, inoculated in MHBII and incubated overnight at 37 °C with shaking for 18–24 h to get the starter culture. Antibiotic susceptibility testing was conducted according to the CLSI (Clinical & Laboratory Standards Institute) guidelines using the broth microdilution assay. 10 mg/mL stock solutions of test compounds were prepared in DMSO. Bacterial cultures were inoculated in MHBII and optical density (OD) was measured at 600 nm, followed by dilution to achieve ~10^6 CFU/mL. The compounds were tested from 64 to 0.5 mg/L in two-fold serial diluted fashion with 2.5 μL of each concentration added to well of a 96-well round bottom microtiter plate. Later, 97.5 μL of bacterial suspension was added to each well containing either test compound or appropriate controls. […] The MIC is defined as the lowest concentration of the compound at which there is absence of visible growth. For each test compound, MIC determinations were carried out independently three times using duplicate samples.

[3] = system: 36th Passage S.aureus ATCC 29213 in the presence of Levofloxacin; experiment: Antibiogram of strain passaged with levofloxacin; format: cell-based; details: Staphylococcus aureus, ATCC29213
Protocol: as §1

S. aureus ATCC 29213 [4] = experiment: Post antibiotic effect (PAE); format: cell-based; details: for Time for 1 log10 increase in bacterial cfu count: 1 h exposure
Protocol: Post antibiotic effect (PAE) was determined as follows. […] Following incubation, cultures were centrifuged and washed twice with pre-warmed MHBII to remove any traces of antibiotics. Finally, cells were resuspended in drug-free MHBII and incubated further at 37 °C. Samples were taken every 1 h, serially diluted, and plated on tryptic soy agar (TSA) for enumeration of CFU. […] CFU observed immediately after the removal of the drug, and C in a similarly treated drug-free control.

Bacillus subtilis MW168 = experiment: MIC assay, B. subtilis MW168; format: cell-based; details: B. subtilis MW168
Escherichia coli W3110 = experiment: MIC assay, E. coli; format: cell-based; details: E. coli, Table S2
[5] = system: methicillin-sensitive Staphylococcus aureus (MSSA), clinical isolate; experiment: MIC assay, MSSA clinical isolate; format: cell-based; details: MSSA clinical isolate
[6] = system: methicillin-resistant S. aureus (MRSA) COL; experiment: MIC assay, MRSA COL; format: cell-based, Staphylococcus aureus; details: MRSA COL
E. coli (NCTC 13476) = experiment: MIC, E. coli NCTC 13476 (with or without PMBN); format: cell-based
S. aureus (CCUG 62707) = experiment: MIC of COD ligand and Pt precursor, S. aureus CCUG 62707; format: cell-based
[7] = system: RecA-GFP (B. subtilis UG10); experiment: Localization of RecA-GFP (DNA damage reporter); format: cell-based, Bacillus subtilis; details: Pt1 3.125 µM, Pt8 25 µM, CisPt 100 µM; strongest after 10 min
Protocol: To confirm whether the compounds induce DNA damage in bacterial cells, the localization of RecA was assessed. RecA is part of the bacterial SOS response to DNA damage. It is a DNA-associated protein that recognizes single-stranded DNA, which occurs as a consequence of strand breaks. If strand breaks are present, RecA accumulates at the damaged sites, appearing as foci or elongated structures. Since the RecA response is strongest shortly after stress induction, we additionally examined a 10 min timepoint in this assay.
B. subtilis strains were grown in LB containing appropriate inducer concentrations as specified in Table S10. After reaching an OD600 of 0.3, cultures were split and treated with antibiotics. Samples were withdrawn after 30 and 60 min of treatment, spotted on glass slides covered with 1% agarose films, and immediately imaged.

HEK293T cells = format: cell-based, Human
Protocol: The control for the experiments was DMSO. HEK293T cells were cultivated in DMEM high glucose supplemented with 10% heat-inactivated fetal bovine serum, 100 U/mL of penicillin and streptomycin and maintained at a temperature of 37 °C with 5% CO2. Initially, 4000/well of cells were seeded into 96-well plates and incubated for 24 h before being exposed to compounds at concentrations ranging from 0.78, 50, and 100 µM. After 24 h of incubation, the compounds were added and serially diluted and incubated for 24 and 48 h at 37 °C 5% CO2, the cells were stained with alamar Blue, and the fluorescence excitation/ emission 540 nm/590 nm was measured using 96 well-plate reader. CC50 is defined as the lowest concentration of compound which leads to a 50% reduction in cell viability compared to untreated and DMSO control. Each experiment was repeated in triplicate.

B. subtilis bSS82 = experiment: Bacterial cytological profiling (BCP); format: cell-based, Bacillus subtilis
Excerpt: To get an overview of the cellular effects of the compounds, we employed bacterial cytological profiling (BCP). To this end, we used a strain intracellularly expressing green-fluorescent protein (GFP) from the strong, constitutive PrpsD promoter (B. subtilis bSS82[37]), stained with the membrane dye Nile red and the DNA dye DAPI. Combined with phase contrast microscopy, this setup allows simultaneous assessment of cell morphology, cell lysis, pore formation, membrane morphology, and nucleoid morphology in one assay.
BCP was performed according to Wenzel et al.[71]. In short, B. subtilis strain […] (PrpsD-gfp) was grown to an OD600 of 0.3 prior to splitting of parent cultures and addition of antibiotics. Samples were taken for microscopy after 30, 60, and 120 min of antibiotic treatment. Five minutes prior to sampling, cultures were stained with 0.5 µg/mL Nile red and 1 µg/mL DAPI for 5 min. Samples of 0.5 µL were then spotted onto 1% agarose slides[45] and images were taken immediately.
Cell length and DAPI intensity were analyzed using MicrobeJ[73]. To this end, the fit shape, rod-shaped setting was used with a minimum area of 0.5 µm, while all other settings remained at default. B. subtilis chains were seperated based on the membrane stain. Membrane stress was counted using the ObjectJ plugin[74], using the membrane setting to seperate individual cells in chains. Membrane damage was expressed as ratio of cells with visible Nile red foci and total detected cells. DNA compaction was analyzed by determining the area of the DNA and the whole cell are using advanced weka segmentation. Cells were segmented according to the GFP signal. […] Cells that were out of focus or lysed were excluded from the analysis. Statistical analysis was peformed using GraphPad Prism 10 as specified in the individual figure legends.

[8] = compound alone, Table S8, read-out: MIC
[9] = S.aureus ATCC 29213 (unpassaged), Table S9, read-out: MIC
[10] = 60 min, Pt1 3.125 µM, Pt8 25 µM, CisPt 100 µM

SMILES | MIC [1] [mg/L] | MIC (S. aureus ATCC 29213 [2]; [8]) [mg/L] | FIC B (S. aureus ATCC 29213 [2]) | FIC (FICA+FICB) (S. aureus ATCC 29213 [2]) | Interference (S. aureus ATCC 29213 [2]) | MIC (MSSA ATCC 29213; [9]) [mg/L] | also measured
OO [hydrogen peroxide] |  |  |  |  |  |  | MIC fold change (increase) with scavenger (B. subtilis 168CA; medium containing 10 mM tiron (superoxide scavenger)): not significantly affected; MIC fold change (increase) with scavenger (B. subtilis 168CA; medium containing 150 mM thiourea (hydroxyl radical scavenger)): 14 fold; MIC fold change (increase) with scavengers (B. subtilis 168CA; medium containing both tiron and thiourea): no additive effect
C[C@H]1COc2c(N3CCN(C)CC3)c(F)cc3c(=O)c(C(=O)O)cn1c23 [Levofloxacin] | 0.25 (≈ 0.692 µM) | 0.25 | 1 | 2 | no interaction | 0.25 (≈ 0.692 µM) | MIC [3]: 32 mg/L (≈ 88.6 µM); PAE (S. aureus ATCC 29213 [4]; 1x MIC): ~ 0.5 h; Time for 1 log10 increase in bacterial cfu count (S. aureus ATCC 29213 [4]; 1x MIC): ~ 3 h; PAE (S. aureus ATCC 29213 [4]; 5x MIC): ~ 1.5 h; Time for 1 log10 increase in bacterial cfu count (S. aureus ATCC 29213 [4]; 5x MIC): ~ 4 h; PAE (S. aureus ATCC 29213 [4]; 10x MIC): ~ 1.5 h; Time for 1 log10 increase in bacterial cfu count (S. aureus ATCC 29213 [4]; 10x MIC): ~ 4 h; PAE (S. aureus ATCC 29213 [4]; 10x MIC, listed as levofloxacin): 1.5 h
N.N.O=C([O-])C1(C(=O)[O-])CCC1.[Pt+2] [Carboplatin] |  |  |  |  |  |  | MIC (Bacillus subtilis MW168): > 100 µM; MIC (Escherichia coli W3110): > 100 µM; MIC [5]: > 100 µM; MIC [6]: > 100 µM
C1=CCCC=CCC1 [1,5-Cyclooctadiene, 1,5-cyclooctadiene] |  |  |  |  |  |  | MIC (E. coli (NCTC 13476); Escherichia coli, NCTC13476): > 200 µM; MIC (S. aureus (CCUG 62707); Staphylococcus aureus, CCUG62707): > 200 µM
CC(=O)NC[C@H]1CN(c2ccc(N3CCOCC3)c(F)c2)C(=O)O1 [Linezolid] | 2 (≈ 5.93 µM) | 2 | 1 | 2 | no interaction | 2 (≈ 5.93 µM) | 
CCCCCCCCCC(=O)N[C@@H](Cc1c[nH]c2ccccc12)C(=O)N[C@H](CC(N)=O)C(=O)N[C@@H](CC(=O)O)C(=O)N[C@@H]1C(=O)NCC(=O)N[C@@H](CCCN)C(=O)N[C@@H](CC(=O)O)C(=O)N[C@H](C)C(=O)N[C@@H](CC(=O)O)C(=O)NCC(=O)N[C@H](CO)C(=O)N[C@@H]([C@H](C)CC(=O)O)C(=O)N[C@@H](CC(=O)c2ccccc2N)C(=O)O[C@@H]1C [Daptomycin] | 1 (≈ 0.617 µM) | 1 | 1 | 2 | no interaction | 1 (≈ 0.617 µM) | 
N.N.[Cl][Pt][Cl] [CisPt, cisplatin] |  |  |  |  |  |  | MIC (Bacillus subtilis MW168): >100 µM; MIC [5]: >100 µM; RecA accumulation on nucleoids [7]: clear RecA accumulations; IC50 (HEK293T cells; 24 h): 81.6 ± 5.1 µM; IC50 (HEK293T cells; 48 h): 22 ± 3.4 µM; DAPI fluorescence intensity (B. subtilis bSS82; [10]): significant reduction of the DAPI signal; nucleoid compaction (cell area vs DAPI-stained nucleoid area) (B. subtilis bSS82; [10]): clear nucleoid compaction; growth and cell length phenotype (B. subtilis bSS82; B. subtilis, 100 µM): slight growth defects and a mild cell elongation phenotype; MIC [6]: >100 µM
CO[C@H]1/C=C/O[C@@]2(C)Oc3c(C)c(O)c4c(O)c(c(/C=N/N5CCN(C)CC5)c(O)c4c3C2=O)NC(=O)/C(C)=C\C=C\[C@H](C)[C@H](O)[C@@H](C)[C@@H](O)[C@@H](C)[C@H](OC(C)=O)[C@@H]1C [Rifampicin] | 0.0156 (≈ 0.019 µM) | 0.0078 | 1 | 2 | no interaction |  | MIC (MSSA ATCC 29213): 0.0156 mg/L (≈ 0.019 µM)
CNC(C)C1CCC(N)C(OC2C(N)CC(N)C(OC3OCC(C)(O)C(NC)C3O)C2O)O1 (stereo not drawn) [Gentamicin] | 0.5 (≈ 1.05 µM) | 0.25 | 1 | 2 | no interaction | 0.25 (≈ 0.523 µM) | 
CN(C)c1ccc(O)c2c1C[C@H]1C[C@H]3[C@H](N(C)C)C(O)=C(C(N)=O)C(=O)[C@@]3(O)C(O)=C1C2=O [Minocycline] | 0.125 (≈ 0.273 µM) |  | 1 | 2 | no interaction |  | MIC (S. aureus ATCC 29213 [2]): 0.125 mg/L; MIC (MSSA ATCC 29213): 0.0625 mg/L (≈ 0.137 µM)
CC(C)(O/N=C(\C(=O)N[C@@H]1C(=O)N2C(C(=O)[O-])=C(C[n+]3ccccc3)CS[C@H]12)c1csc(N)n1)C(=O)O [Ceftazidime] | 16 (≈ 29.3 µM) | 16 | 1 | 2 | no interaction | 16 (≈ 29.3 µM) | 
O=C1[O][Pt]2([NH][C@@H]3CCCC[C@H]3[NH]2)[O]C1=O [Oxaliplatin] |  |  |  |  |  |  | MIC (Bacillus subtilis MW168): > 100 µM; MIC (Escherichia coli W3110): > 100 µM; MIC [5]: > 100 µM; MIC [6]: > 100 µM
C[C@@H](O)[C@H]1C(=O)N2C(C(=O)O)=C(S[C@@H]3CN[C@H](C(=O)N(C)C)C3)[C@H](C)[C@H]12 [Meropenem] | 0.25 (≈ 0.652 µM) | 0.25 | 1 | 2 | no interaction | 0.25 (≈ 0.652 µM) | MIC [3]: 0.125 mg/L (≈ 0.326 µM)
[Cl][Pt-2]([Cl])([Cl])[Cl].[K+].[K+] [Pt K2PtCl4, K2PtCl4] |  |  |  |  |  |  | MIC (E. coli (NCTC 13476); E. coli NCTC 13476): > 200 µM; MIC (S. aureus (CCUG 62707); S. aureus CCUG 62707): > 200 µM

Reference: paper PMC13183915, “A platinum butterfly effect: small changes turn an anticancer drug into a non-toxic metalloantibiotic with in vivo efficacy” (npj Antimicrobials and Resistance, 2026)
